We go through one compound from publication PMC4987650, “Structural Investigation of Park’s Nucleotide on Bacterial Translocase MraY: Discovery of Unexpected MraY Inhibitors” (Scientific Reports, 2016).

For one experiment, the target named is T1, MraYBS K226A mutant (Bacillus subtilis, UniProt Q03521, K226A).
T1 construct: MBP; made in house
Description: HPLC-based MraY functional assay, mutant MraY. Type of experiment: biochemical. To be noted: consumption of 6 in one-hour reaction. How it is done: (§1) The purified MraY from Bacillus subtilis was prepared as described in our previous reports. For 5 and 7–10, the reaction mixture containing MraYBS (10 μg/mL), C55P (200 μM) in 40 μL reaction buffer (30 mM Tris, 10 mM MgCl2, 10 mM NaCl, 0.1 mM Tween-20, 2.5% DMSO, pH 8.0) were pre-incubated at 37 °C for 15 min. The reactions were initiated by the addition of Park’s nucleotide analogues (10 μM) and incubated at 37 °C for 1 h. The reaction mixtures were added by uridine (0.01 mg/mL) as the internal standard and heated to 100 °C to stop the transferring reaction. The samples were analyzed by RP-C18 HPLC with gradient elution of 0.25 M NH4HCO3(aq)/15% MeOH in water (100:0 to 0:100) at a flow rate of 1 mL/min over 45 min, and the peaks of substrates were monitored at UV 260 nm. […] The reaction mixtures were heated to 100 °C to stop the transferring reaction, and samples were analyzed by an anion-exchange column (SAX1, Supelco Co., 5 μm, 4.6 × 250 mm) with a linear gradient elution of NH4OAc (20 mM to 1 M in MeOH) at a flow rate of 1.0 mL/min over 30 min. The fluorescent substrates were monitored with λex 466 nm/λem 535 nm by fluorescence detector. […]

Experiment [1] addresses T2, MraYBS (Bacillus subtilis, UniProt Q03521).
T2 construct: MBP; made in house
T2 sequence (Q03521 1-324): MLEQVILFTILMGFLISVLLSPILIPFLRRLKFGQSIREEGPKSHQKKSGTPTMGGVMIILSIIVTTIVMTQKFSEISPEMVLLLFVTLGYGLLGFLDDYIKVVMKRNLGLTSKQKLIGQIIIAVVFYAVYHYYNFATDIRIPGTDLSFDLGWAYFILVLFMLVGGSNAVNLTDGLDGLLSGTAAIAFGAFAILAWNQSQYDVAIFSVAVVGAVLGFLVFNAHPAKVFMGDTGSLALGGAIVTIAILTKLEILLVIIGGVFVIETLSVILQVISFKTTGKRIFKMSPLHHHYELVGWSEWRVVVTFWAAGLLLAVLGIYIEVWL
In words: Biolayer interferometry-based (BLI) binding assay. How it is done: MraYBS binding was measured in a biolayer interferometry-based binding assay on Octet Red96® instrument (ForteBio, Inc.). The biotinylation of MraYBS was performed with using EZ-Link® Sulfo-NHS-LC-LC-Biotin Kit (Thermo Fisher Scientific, Inc.). In general, MraYBS (1.7 mg/mL) in 50 μL reaction buffer (0.01 M HEPES pH 7.4, 0.15 M NaCl, 0.005% v/v Surfactant P20), was added by the sulfo-NHS-LC-LC-biotin reagent (1 mM, 1 μL). After incubating for 30 minutes at room temperature, the biotinylated-MraYBS was purified by a Zeba^TM Spin Desalting Columns, 7K MWCO (Thermo Fisher Scientific, Inc.), and the buffer was changed to the binding buffer (30 mM Tris, 10 mM MgCl2, 10 mM NaCl, 0.1 mM Tween-20, pH 8.0) during the purification. Comparing to the non-biotinylated-MraYBS, the biotinylated-MraYBS remains 62% activity measured by the HPLC-based MraY functional assay in 1 h reaction. The biotinylated MraYBS was then immobilized to Super Streptavidin (SSA) Octet tips (ForteBio, Inc.) for reaching a fixed signal of 3 nm. Before the assay starting, the MraYBS-labeled SSA sensors were pre-soaked in binding buffer for 30 min. The association of Park’s analogues with MraYBS were measured by incubating MraYBS-labeled SSA sensors in binding buffer containing various concentrations of samples in Octet Red system. The dissociation was monitored by moving the ligand biosenors from the analyte solution to binding buffer. The dissociation constants (KD) were obtained by nonlinear regression analysis using the specific binding model with the GraphPad Prism program (GraphPad Software, San Diego, CA).
In general terms: In BLI a coated tip is dipped into the sample, and binding shifts an interference pattern.

The target of the next experiment is T3, MraYBS Q271A mutant (Bacillus subtilis, UniProt Q03521, Q271A).
T3 construct: MBP; made in house
Description: HPLC-based MraY functional assay, mutant MraY. Format: biochemical. To be noted: consumption of 6 in one-hour reaction. As for the experimental part:
as §1

The target of experiment [2] is T2, MraYBS. In words: HPLC-based MraY functional assay (substrate activity). Type of experiment: biochemical. As for the experimental part: The purified MraY from Bacillus subtilis was prepared as described in our previous reports. […] […] The reaction mixtures were added by uridine (0.01 mg/mL) as the internal standard and heated to 100 °C to stop the transferring reaction. The samples were analyzed by RP-C18 HPLC with gradient elution of 0.25 M NH4HCO3(aq)/15% MeOH in water (100:0 to 0:100) at a flow rate of 1 mL/min over 45 min, and the peaks of substrates were monitored at UV 260 nm. For 6 and 11–17, the reaction mixture containing MraYBS (10 μg/mL), C55P (200 μM), 6-(7-Nitro-2,1,3-benzoxadiazol-4-ylamino)hexanoic acid (5 μM, internal standard) in 10 μL reaction buffer (30 mM Tris, 10 mM MgCl2, 10 mM NaCl, 0.1 mM Tween-20, 2.5% DMSO, pH 8.0) were pre-incubated at 37 °C for 15 min. […] The reaction mixtures were heated to 100 °C to stop the transferring reaction, and samples were analyzed by an anion-exchange column (SAX1, Supelco Co., 5 μm, 4.6 × 250 mm) with a linear gradient elution of NH4OAc (20 mM to 1 M in MeOH) at a flow rate of 1.0 mL/min over 30 min. The fluorescent substrates were monitored with λex 466 nm/λem 535 nm by fluorescence detector.

The next experiment deals with T4, MraYBS T51A mutant (Bacillus subtilis, UniProt Q03521, T51A).
T4 construct: MBP; made in house
Description: HPLC-based MraY functional assay, mutant MraY. Type of experiment: biochemical. To be noted: consumption of 6 in one-hour reaction. As for the experimental part: as §1

As a reminder, the Kd is the constant that tells how readily two partners part at equilibrium.

On to `CC(=O)N[C@H]1[C@@H](OP(=O)(O)OP(=O)(O)OC[C@H]2O[C@@H](n3ccc(=O)[nH]c3=O)[C@H](O)[C@@H]2O)O[C@H](CO)[C@@H](O)[C@@H]1O[C@H](C)C(=O)N[C@@H](C)C(=O)N[C@H](CCC(=O)N[C@@H](CCCCNC(=O)CCCCCNc1ccc([N+](=O)[O-])c2nonc12)C(=O)N[C@H](C)C(=O)N[C@H](C)C(=O)O)C(=O)O` [Compound 6, NBD-Park’s nucleotide], for which the Relative activity at MraYBS K226A mutant was 100%; at MraYBS Q271A mutant, 16%; at MraYBS [2] (WT MraYBS, consumption of 6 in one-hour reaction), 100%; on MraYBS T51A mutant, 60%. The same compound displayed a Kd on MraYBS [1] of 127 µM. In addition, the substrate consumption result at MraYBS [2] (C55P (200 μM) as polyprenyl phosphate substrate, substrate 10 μM, within 1 h (60 min)) is reported as “completely consumed”.
